Molecular target: active human CypA protein (Homo sapiens, UniProt P62937)
Assay: Surface plasmon resonance
Format: binding
Conditions: assays of Fig. 5 (CypA SPR, IL-2)

Sequence of active human CypA protein (P62937 whole entry): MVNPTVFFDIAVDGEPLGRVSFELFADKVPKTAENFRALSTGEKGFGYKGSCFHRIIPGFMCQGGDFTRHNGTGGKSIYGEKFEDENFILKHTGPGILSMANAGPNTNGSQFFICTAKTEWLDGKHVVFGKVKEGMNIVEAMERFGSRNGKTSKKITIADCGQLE

Row | immunosuppressive activity / CypA affinity in words | immunosuppressive activity / CypA affinity in words (listed as (–)-28) | Structure (SMILES)
1 | completely inactive | inactive | CC1(C)CCCC(C)(C2=C[C@@H]3COC(=O)[C@@H]3CC2)C1 (stereo partly drawn) [compound 28]
2 | completely inactive | – | CC(=O)O[C@@H]1OC[C@H]2CC(=O)CC[C@H]21 [(-)-24]
